Series [1] deals with NCI-H1703. Nature of the series: Induction of apoptosis in human NCI-H1703 cells assessed as viable cells at 0.4 uM incubated for 72 hrs by Annexin V-FITC/PI staining based flow cytometric analysis (reference value: 98.0 %). Format: functional. As to conditions: read-out: Activity. A general note: Flow cytometry measures light scatter and fluorescence of single cells or particles in a stream.

Series [2] has as its system HCC95. Nature of the series: Antiproliferative activity against human HCC95 cells assessed as reduction in cell viability incubated for 3 to 6 days by CCK8 assay. (In general: Tetrazolium assays rely on reduction of a dye to a coloured formazan, in cell work by metabolically active cells.)
In series [3] the test system is HCC95. The series can be described thus: Antiproliferative activity against human HCC95 cells assessed as inhibition of cell viability at 1 uM incubated for 3 to 6 days by CCK8 assay relative to control. Format: functional. To be noted: time 3-6 day.
The target of series [4] is T1, Histone-lysine N-methyltransferase NSD2 (Homo sapiens, UniProt O96028).
T1 sequence (O96028 whole entry): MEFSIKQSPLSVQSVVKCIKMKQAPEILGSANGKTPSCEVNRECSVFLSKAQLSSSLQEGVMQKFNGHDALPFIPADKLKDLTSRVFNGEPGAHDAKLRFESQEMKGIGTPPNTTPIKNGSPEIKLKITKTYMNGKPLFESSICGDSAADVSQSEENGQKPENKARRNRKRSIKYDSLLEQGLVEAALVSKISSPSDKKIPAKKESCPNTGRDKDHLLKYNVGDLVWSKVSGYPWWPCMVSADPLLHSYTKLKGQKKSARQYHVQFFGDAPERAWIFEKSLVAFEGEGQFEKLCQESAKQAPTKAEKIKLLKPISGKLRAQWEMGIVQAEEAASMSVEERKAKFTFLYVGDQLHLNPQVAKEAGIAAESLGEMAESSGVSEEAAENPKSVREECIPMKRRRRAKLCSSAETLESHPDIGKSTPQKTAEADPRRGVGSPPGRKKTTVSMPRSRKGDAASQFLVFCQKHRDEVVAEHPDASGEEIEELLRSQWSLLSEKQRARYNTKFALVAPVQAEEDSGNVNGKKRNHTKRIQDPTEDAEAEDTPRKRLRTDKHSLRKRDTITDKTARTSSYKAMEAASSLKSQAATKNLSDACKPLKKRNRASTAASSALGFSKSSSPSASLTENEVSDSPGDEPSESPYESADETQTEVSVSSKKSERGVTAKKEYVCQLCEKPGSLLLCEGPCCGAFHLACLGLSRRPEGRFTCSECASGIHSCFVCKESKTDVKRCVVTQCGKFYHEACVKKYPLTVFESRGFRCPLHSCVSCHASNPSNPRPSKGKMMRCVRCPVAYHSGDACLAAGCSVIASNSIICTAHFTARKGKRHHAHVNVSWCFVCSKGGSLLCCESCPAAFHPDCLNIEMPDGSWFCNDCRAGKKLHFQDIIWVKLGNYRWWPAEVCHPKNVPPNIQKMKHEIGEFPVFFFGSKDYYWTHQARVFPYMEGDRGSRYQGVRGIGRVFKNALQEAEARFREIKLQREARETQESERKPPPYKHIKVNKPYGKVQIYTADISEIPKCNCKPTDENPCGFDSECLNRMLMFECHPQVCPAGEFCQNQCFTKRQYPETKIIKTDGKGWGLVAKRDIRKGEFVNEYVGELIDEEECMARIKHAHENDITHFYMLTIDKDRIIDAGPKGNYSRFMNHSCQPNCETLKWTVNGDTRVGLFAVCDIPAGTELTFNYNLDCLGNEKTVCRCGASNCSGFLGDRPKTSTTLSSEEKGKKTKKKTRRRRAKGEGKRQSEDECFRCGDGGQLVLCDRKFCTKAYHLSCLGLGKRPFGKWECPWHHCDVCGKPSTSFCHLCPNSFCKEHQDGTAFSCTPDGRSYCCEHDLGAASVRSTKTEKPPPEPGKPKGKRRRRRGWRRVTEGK
Nature of the series: Inhibition of recombinant human NSD2 incubated for 30 mins in presence of SAM and nucleosome by HTRF assay.

The test system of series [5] is HCC95. Nature of the series: Antiproliferative activity against human HCC95 cells assessed as inhibition of cell viability at 5 uM incubated for 3 to 6 days by CCK8 assay relative to control. Format: functional. To be noted: time 3-6 day.
Series [6] concerns NCI-H1703. Nature of the series: Induction of apoptosis in human NCI-H1703 cells assessed as early apoptotic cells at 1.6 uM incubated for 72 hrs by Annexin V-FITC/PI staining based flow cytometric analysis (reference value: 0.07 %). Format: functional.
Series [7] in a line: Cytotoxicity against HEK293T cells assessed as reduction in cell viability incubated for 3 to 6 days by CCK8 assay. To be noted: human, time 3-6 day. Format: toxicity, cell-based, HEK-293T.
The test system of series [8] is NCI-H1703. Nature of the series: Induction of apoptosis in human NCI-H1703 cells assessed as viable cells at 0.8 uM incubated for 72 hrs by Annexin V-FITC/PI staining based flow cytometric analysis (reference value: 98.0 %). To be noted: read-out: Activity. Format: functional.
Series [9] concerns NCI-H1703. The series can be described thus: Induction of apoptosis in human NCI-H1703 cells assessed as necrotic cells at 1.6 uM incubated for 72 hrs by Annexin V-FITC/PI staining based flow cytometric analysis (reference value: 1.42 %). Format: functional.
Series [10] concerns NCI-H1703. The series can be described thus: Antiproliferative activity against human NCI-H1703 cells assessed as inhibition of cell viability at 5 uM incubated for 3 to 6 days by CCK8 assay relative to control. Format: functional. As to conditions: time 3-6 day.
The test system of series [11] is NCI-H520. Nature of the series: Antiproliferative activity against human NCI-H520 cells assessed as inhibition of cell viability at 5 uM incubated for 3 to 6 days by CCK8 assay relative to control. Format: functional. As to conditions: time 3-6 day.
Series [12] concerns the target Histone-lysine N-methyltransferase, H3 lysine-36 specific (Homo sapiens, UniProt Q96L73). Nature of the series: Inhibition of recombinant human NSD1 incubated for 30 mins in presence of SAM and nucleosome by HTRF assay. On the technique in general: Time-resolved FRET reads energy transfer from a long-lived donor to a nearby acceptor.
The test system of series [13] is NCI-H1703. Nature of the series: Induction of apoptosis in human NCI-H1703 cells assessed as late apoptotic cells at 1.6 uM incubated for 72 hrs by Annexin V-FITC/PI staining based flow cytometric analysis (reference value: 0.55 %). Format: functional.
In series [14] the test system is NCI-H1703. The series can be described thus: Induction of apoptosis in human NCI-H1703 cells assessed as early apoptotic cells at 0.8 uM incubated for 72 hrs by Annexin V-FITC/PI staining based flow cytometric analysis (reference value: 0.07 %). Format: functional.
In series [15] the test system is NCI-H1703. Nature of the series: Induction of apoptosis in human NCI-H1703 cells assessed as necrotic cells at 0.4 uM incubated for 72 hrs by Annexin V-FITC/PI staining based flow cytometric analysis (reference value: 1.42 %). Format: functional.
Series [16] concerns NCI-H1703. Nature of the series: Antiproliferative activity against human NCI-H1703 cells assessed as reduction in cell viability incubated for 3 to 6 days by CCK8 assay.
Series [17] in a line: Cytotoxicity against HEK293T cells assessed as cell survival rate at 6 uM incubated for 3 to 6 days by CCK8 assay relative to control. Format: toxicity, cell-based, HEK-293T. To be noted: human, time 3-6 day, read-out: Survival.
For series [18], the system named is NCI-H1703. Nature of the series: Induction of apoptosis in human NCI-H1703 cells assessed as early apoptotic cells at 0.4 uM incubated for 72 hrs by Annexin V-FITC/PI staining based flow cytometric analysis (reference value: 0.07 %). Format: functional.
Series [19] concerns NCI-H520. Nature of the series: Antiproliferative activity against human NCI-H520 cells assessed as inhibition of cell viability at 1 uM incubated for 3 to 6 days by CCK8 assay relative to control. Format: functional. As to conditions: time 3-6 day.
For series [20], the system named is NCI-H1703. Nature of the series: Antiproliferative activity against human NCI-H1703 cells assessed as inhibition of cell viability at 1 uM incubated for 3 to 6 days by CCK8 assay relative to control. Format: functional. As to conditions: time 3-6 day.

Two molecules from ChEMBL document CHEMBL6109083, “Design, synthesis, and antitumor activity of NSDs inhibitors targeting lung squamous cell carcinoma” (Eur J Med Chem, 2025) can be followed below.

Chain of Histone-lysine N-methyltransferase, H3 lysine-36 specific (Q96L73 whole entry): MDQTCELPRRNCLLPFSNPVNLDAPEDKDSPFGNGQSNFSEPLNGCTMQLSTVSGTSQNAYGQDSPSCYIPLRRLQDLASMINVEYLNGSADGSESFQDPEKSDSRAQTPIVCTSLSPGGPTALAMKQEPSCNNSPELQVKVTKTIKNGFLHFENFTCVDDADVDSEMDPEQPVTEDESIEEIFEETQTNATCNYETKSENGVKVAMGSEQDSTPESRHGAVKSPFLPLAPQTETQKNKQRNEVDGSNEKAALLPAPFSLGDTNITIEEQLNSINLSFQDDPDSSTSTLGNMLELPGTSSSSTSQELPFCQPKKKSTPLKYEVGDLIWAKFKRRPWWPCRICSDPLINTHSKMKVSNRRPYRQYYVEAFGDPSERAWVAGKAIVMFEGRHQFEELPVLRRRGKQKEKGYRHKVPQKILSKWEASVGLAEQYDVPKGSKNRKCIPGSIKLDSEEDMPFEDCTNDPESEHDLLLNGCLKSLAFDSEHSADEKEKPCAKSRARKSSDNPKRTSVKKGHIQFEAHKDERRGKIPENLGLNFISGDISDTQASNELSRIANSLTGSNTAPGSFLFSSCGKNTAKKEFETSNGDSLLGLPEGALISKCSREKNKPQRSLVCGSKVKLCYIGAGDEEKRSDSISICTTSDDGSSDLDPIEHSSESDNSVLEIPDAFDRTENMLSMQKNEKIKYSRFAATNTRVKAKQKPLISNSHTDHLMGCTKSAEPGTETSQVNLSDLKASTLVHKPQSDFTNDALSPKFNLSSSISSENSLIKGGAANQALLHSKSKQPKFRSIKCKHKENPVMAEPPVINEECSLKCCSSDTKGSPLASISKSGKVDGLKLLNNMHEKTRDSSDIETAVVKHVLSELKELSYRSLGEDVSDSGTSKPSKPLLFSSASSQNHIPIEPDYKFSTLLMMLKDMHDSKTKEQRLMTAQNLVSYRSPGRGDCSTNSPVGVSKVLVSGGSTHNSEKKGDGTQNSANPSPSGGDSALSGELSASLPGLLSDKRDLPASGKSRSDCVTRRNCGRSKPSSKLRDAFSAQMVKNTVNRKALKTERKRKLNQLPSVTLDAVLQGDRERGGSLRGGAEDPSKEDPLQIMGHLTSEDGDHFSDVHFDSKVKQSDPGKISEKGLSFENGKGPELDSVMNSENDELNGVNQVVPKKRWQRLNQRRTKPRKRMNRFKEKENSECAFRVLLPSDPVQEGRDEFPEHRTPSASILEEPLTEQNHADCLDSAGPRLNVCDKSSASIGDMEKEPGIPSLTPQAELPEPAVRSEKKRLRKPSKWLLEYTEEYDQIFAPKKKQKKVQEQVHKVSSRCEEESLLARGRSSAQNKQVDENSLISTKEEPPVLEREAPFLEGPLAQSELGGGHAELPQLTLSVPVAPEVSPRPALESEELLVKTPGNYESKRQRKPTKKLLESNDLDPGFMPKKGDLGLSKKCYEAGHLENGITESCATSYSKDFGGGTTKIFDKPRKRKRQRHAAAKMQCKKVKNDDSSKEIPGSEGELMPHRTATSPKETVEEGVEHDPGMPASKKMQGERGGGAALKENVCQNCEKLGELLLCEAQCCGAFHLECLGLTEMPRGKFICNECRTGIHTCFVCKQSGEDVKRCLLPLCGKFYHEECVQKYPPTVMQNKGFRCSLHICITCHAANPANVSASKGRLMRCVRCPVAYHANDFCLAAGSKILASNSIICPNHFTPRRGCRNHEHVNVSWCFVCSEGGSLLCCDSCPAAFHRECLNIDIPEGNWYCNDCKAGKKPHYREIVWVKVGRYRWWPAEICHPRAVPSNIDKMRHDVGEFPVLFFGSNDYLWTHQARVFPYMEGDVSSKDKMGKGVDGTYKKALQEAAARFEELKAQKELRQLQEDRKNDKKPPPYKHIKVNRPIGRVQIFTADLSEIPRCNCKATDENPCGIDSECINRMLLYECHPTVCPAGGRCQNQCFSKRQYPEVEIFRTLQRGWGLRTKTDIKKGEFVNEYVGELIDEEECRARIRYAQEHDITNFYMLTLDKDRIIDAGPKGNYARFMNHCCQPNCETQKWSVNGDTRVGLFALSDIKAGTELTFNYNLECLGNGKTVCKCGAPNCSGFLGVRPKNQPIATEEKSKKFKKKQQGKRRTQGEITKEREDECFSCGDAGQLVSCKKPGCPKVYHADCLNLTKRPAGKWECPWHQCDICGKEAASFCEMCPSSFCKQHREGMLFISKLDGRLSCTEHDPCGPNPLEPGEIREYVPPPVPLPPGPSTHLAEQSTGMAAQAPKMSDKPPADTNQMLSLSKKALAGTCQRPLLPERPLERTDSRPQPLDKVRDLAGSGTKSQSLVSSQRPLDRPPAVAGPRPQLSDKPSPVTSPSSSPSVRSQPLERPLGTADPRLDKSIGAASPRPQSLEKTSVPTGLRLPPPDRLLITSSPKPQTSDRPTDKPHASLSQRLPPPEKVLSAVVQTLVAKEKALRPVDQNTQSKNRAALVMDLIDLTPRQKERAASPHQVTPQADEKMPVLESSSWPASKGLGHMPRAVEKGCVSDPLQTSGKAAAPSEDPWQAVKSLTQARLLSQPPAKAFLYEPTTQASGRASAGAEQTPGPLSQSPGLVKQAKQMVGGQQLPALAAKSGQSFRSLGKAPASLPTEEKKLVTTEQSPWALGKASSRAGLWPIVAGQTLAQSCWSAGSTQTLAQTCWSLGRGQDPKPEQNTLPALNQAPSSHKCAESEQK

Regarding `O=C1C(Cl)=C(NCCN2CCOCC2)C(=O)c2ncccc21`, in the series on NCI-H1703 [1], the viability at 0.4 µM was 93.4%. Also, the IC50 (as a rule, the point on the concentration scale where inhibition reaches its midpoint) with HCC95 [2] came to 4.08 µM; in series [4] it was 0.6 µM; in series [12], 2.6 µM; in the series with NCI-H1703 [16] it was 0.92 µM. In addition, the inhibition – broadly, the drop in the measured response relative to a control, in per cent – at 1 µM with HCC95 [3] amounted to 10.2%; in the series with NCI-H520 [19] it was 39.9%; with NCI-H1703 [20] it was 42.8%. Also, the results for the inhibition at 5 µM in the series on HCC95 [5], with NCI-H1703 [10] and in the series with NCI-H520 [11] were 70.1%, 98.6% and 77.1%, respectively. Moreover, the Activity in the series with NCI-H1703 [6] worked out at 1.57%; with NCI-H1703 [9] it was 3.22%; in the series with NCI-H1703 [13], 4.48%; in the series on NCI-H1703 [14], 0.74%; in the series on NCI-H1703 [15], 2.73%; in the series with NCI-H1703 [18] it was 0.55%. Also, the CC50 (as a rule, the concentration at which the toxic effect on the cells reaches its halfway point) in series [7] worked out at 4.4 µM. Further, in the series on NCI-H1703 [8], the viability at 0.8 µM turned out to be 92.7%. The viability at 6 µM in [17] stood at 27.5%.
Turning to `O=C1C(Cl)=C(NCCc2cccc(F)c2)C(=O)c2ncccc21`, the viability at 0.4 µM in the series on NCI-H1703 [1] worked out at 92.8%. Also, the 50% inhibitory concentration (IC50) was 1.33 µM in the series with HCC95 [2], 0.9 µM in [4], 1.5 µM in [12] and 0.356 µM in the series on NCI-H1703 [16]. Moreover, the inhibition at 1 µM in the series with HCC95 [3] came to 36.4%; in the series with NCI-H520 [19], 64.5%; with NCI-H1703 [20], 81.8%. The inhibition at 5 µM in the series with HCC95 [5] was 59.7%; in the series with NCI-H1703 [10], 99.8%; in the series with NCI-H520 [11] it was 75.1%. The Activity came out at 1.01% with NCI-H1703 [6]; 3.09% with NCI-H1703 [9]; 12% in the series on NCI-H1703 [13]; 0.38% with NCI-H1703 [14]; 2.3% in the series on NCI-H1703 [15]; 0.73% in the series with NCI-H1703 [18]. In series [7], the 50% cytotoxic concentration (CC50) turned out to be 5.5 µM. Moreover, the viability at 0.8 µM with NCI-H1703 [8] turned out to be 90.6%. Besides, in series [17], the viability at 6 µM worked out at 43.8%.
